From ChEMBL document CHEMBL1909046, “DrugMatrix in vitro pharmacology data”

Key:
[1] = biological target: T1, Type-2 angiotensin II receptor (Homo sapiens, UniProt P50052); assay type: cell-based; details: cho-k1
T1 sequence (P50052 whole entry): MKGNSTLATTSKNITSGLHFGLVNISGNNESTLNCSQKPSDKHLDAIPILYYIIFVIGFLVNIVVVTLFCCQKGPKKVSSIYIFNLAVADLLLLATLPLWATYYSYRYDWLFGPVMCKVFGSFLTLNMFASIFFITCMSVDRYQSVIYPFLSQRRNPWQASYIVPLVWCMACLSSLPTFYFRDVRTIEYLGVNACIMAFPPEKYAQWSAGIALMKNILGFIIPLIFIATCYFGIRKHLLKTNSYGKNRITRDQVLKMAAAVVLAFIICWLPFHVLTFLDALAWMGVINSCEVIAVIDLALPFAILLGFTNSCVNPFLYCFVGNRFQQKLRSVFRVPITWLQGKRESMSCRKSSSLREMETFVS

[2] = biological target: 5-hydroxytryptamine receptor 2B (Homo sapiens, UniProt P41595); assay type: cell membranes, CHO-K1, Membrane
5-hydroxytryptamine receptor 2B, sequence (P41595 whole entry): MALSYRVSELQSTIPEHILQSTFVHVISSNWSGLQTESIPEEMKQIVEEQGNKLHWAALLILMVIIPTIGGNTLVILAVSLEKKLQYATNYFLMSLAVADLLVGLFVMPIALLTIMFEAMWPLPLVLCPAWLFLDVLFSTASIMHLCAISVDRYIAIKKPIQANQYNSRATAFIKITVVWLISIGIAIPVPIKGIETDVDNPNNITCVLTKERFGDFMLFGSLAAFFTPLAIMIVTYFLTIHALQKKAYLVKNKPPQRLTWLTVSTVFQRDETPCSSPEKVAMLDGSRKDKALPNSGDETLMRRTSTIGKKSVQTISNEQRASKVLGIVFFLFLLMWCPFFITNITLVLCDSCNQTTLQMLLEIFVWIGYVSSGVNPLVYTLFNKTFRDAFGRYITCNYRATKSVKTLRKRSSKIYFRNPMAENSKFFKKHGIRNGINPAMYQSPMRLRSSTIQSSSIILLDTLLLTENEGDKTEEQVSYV

[3] = biological target: T2, Nitric oxide synthase, inducible (Mus musculus, UniProt P29477); parameters: species or system Escherichia coli;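 note: inhibition of iNOS enzyme activity measured with L-arginine as substrate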
T2 sequence (P29477 whole entry): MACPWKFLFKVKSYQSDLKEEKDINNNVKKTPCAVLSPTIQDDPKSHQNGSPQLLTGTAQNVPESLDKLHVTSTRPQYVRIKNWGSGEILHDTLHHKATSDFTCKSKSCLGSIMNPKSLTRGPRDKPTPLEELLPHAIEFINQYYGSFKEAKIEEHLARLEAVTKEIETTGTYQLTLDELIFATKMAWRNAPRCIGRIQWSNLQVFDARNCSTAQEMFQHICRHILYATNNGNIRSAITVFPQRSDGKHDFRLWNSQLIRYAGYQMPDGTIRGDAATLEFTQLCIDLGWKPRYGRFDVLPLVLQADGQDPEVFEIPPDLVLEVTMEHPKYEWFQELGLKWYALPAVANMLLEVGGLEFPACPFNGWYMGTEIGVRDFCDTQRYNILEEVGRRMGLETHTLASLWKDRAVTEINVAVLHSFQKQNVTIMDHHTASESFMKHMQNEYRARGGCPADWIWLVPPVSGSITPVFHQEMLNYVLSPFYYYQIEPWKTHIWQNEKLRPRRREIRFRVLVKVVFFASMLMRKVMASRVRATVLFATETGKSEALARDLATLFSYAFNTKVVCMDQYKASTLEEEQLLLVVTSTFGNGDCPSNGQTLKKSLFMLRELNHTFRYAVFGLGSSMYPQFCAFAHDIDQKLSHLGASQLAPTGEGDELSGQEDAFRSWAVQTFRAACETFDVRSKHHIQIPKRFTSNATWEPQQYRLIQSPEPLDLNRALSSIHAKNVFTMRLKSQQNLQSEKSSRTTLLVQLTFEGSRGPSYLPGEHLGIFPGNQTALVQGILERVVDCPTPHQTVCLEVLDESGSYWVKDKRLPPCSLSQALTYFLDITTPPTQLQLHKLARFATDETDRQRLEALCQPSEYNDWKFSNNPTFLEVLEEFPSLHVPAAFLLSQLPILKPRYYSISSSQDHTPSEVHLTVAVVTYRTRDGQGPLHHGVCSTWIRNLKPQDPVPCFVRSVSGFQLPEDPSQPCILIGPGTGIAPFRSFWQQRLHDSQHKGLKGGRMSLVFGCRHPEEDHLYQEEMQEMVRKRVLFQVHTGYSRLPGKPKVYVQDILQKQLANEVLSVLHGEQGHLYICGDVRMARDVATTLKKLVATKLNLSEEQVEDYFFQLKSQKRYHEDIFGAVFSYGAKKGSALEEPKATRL

[4] = biological target: Matrix metalloproteinase-9 (Homo sapiens, UniProt P14780); experiment: biochemical; assay type: cell-based;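 note: inhibition of isolated MMP-9 enzyme activity toward a synthetic peptide substrate, from the DrugMatrix protease screening panel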
Matrix metalloproteinase-9, sequence (P14780 whole entry): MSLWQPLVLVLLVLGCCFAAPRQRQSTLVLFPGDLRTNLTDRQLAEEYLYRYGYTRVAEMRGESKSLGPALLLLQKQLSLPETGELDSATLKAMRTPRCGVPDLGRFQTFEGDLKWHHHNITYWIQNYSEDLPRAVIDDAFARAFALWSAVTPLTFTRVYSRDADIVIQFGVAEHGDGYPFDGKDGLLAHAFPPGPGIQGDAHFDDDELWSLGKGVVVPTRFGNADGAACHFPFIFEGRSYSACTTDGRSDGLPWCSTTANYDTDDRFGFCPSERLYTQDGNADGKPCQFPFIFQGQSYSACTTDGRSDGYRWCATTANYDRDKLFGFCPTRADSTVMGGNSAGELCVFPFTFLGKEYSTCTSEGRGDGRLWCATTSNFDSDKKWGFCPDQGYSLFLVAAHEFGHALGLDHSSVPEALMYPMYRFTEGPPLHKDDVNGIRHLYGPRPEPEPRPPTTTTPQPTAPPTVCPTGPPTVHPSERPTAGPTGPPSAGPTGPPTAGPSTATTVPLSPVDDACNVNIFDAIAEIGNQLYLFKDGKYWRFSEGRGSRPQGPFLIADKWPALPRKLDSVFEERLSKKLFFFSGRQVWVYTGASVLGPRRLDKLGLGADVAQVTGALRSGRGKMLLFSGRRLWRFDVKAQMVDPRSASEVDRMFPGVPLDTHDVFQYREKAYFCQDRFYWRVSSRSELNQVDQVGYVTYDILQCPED

[5] = biological target: T3, 5-hydroxytryptamine receptor 1A (Rattus norvegicus, UniProt P19327); assay type: cell membranes, CHO-K1, Membrane
T3 sequence (P19327 whole entry): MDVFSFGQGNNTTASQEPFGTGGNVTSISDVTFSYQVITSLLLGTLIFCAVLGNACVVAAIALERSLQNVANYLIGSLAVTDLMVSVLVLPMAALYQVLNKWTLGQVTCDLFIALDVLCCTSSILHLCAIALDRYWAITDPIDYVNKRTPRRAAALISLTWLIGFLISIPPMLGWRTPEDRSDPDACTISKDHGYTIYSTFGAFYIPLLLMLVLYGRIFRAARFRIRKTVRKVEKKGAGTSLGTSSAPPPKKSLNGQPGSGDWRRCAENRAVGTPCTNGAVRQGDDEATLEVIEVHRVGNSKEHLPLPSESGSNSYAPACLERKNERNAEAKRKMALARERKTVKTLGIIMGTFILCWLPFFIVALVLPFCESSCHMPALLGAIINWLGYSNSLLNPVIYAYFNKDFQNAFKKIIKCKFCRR

[6] = biological target: T4, Cytochrome P450 1A2 (Homo sapiens, UniProt P05177); details: bti-tn-5b1-4
T4 sequence (P05177 whole entry): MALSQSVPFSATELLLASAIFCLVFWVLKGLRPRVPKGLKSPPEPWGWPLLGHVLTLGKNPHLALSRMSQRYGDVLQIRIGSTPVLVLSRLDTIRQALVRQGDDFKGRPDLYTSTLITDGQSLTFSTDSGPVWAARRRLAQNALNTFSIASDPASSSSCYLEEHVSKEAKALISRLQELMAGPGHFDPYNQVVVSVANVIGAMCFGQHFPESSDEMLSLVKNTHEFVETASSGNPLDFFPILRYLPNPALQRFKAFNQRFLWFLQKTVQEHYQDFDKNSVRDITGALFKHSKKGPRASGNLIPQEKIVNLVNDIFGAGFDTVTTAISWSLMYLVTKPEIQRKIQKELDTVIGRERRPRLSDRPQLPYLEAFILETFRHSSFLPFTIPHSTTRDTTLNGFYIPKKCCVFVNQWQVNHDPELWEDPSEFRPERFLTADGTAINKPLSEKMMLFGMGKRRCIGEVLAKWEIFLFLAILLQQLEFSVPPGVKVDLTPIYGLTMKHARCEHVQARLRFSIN

[7] = biological target: Voltage-gated inwardly rectifying potassium channel KCNH2 (Homo sapiens, UniProt Q12809); details: hek293
Voltage-gated inwardly rectifying potassium channel KCNH2, sequence (Q12809 whole entry): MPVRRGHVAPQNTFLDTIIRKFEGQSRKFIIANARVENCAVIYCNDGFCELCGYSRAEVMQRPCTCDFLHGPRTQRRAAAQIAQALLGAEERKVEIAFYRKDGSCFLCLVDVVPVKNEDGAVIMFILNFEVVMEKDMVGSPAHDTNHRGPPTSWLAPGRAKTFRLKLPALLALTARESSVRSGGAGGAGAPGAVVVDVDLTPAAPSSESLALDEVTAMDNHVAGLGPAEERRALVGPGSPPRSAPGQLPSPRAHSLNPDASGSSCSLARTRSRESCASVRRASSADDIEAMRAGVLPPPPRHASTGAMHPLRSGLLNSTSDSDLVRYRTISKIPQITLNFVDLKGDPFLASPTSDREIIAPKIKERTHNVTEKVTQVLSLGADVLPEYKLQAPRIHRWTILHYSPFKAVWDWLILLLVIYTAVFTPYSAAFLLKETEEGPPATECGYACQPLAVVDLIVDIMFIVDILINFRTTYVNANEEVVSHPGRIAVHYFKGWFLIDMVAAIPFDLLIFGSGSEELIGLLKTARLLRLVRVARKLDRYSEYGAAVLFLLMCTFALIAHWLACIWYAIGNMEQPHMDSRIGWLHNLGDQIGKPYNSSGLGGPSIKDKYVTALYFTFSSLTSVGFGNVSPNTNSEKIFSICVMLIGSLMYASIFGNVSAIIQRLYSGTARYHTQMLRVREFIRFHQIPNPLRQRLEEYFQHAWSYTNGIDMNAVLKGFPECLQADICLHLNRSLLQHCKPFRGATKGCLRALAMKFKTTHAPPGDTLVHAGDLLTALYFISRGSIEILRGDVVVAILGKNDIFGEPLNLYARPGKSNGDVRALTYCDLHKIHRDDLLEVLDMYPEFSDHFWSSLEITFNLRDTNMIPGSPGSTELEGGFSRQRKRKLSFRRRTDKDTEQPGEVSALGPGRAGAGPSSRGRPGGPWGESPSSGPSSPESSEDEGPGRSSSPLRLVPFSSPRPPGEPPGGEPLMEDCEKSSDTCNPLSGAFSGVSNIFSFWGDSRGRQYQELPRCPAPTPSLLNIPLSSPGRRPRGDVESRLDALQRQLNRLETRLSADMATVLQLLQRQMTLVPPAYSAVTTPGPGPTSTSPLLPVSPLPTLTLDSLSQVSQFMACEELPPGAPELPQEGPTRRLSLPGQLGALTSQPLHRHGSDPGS
Note: in other assays of this panel Not Active means under 50% inhibition at 10 µM.

Row | SMILES | IC50 [1] | Ki ([2]; cho-k1) | IC50 [3] | IC50 [4] | IC50 ([5]; cho-k1) | IC50 [6] | Ki [6] | IC50 [7] | Ki [7] | IC50 ([2]; cho-k1) | IC50 ([2]; read-out: IC50) | Ki ([2]; read-out: Ki) | IC50 ([5]; read-out: IC50) | Ki ([5]; read-out: Ki)
1 | NC[C@@H]1O[C@H](O[C@H]2[C@@H](O)[C@H](O[C@@H]3[C@@H](O)[C@H](N)C[C@H](N)[C@H]3O[C@H]3O[C@H](CN)[C@@H](O)[C@H](O)[C@H]3N)O[C@@H]2CO)[C@H](N)[C@@H](O)[C@@H]1O [FRAMYCETIN] | Not Active | Not Active | Not Active | Not Active | Not Active | Not Active | Not Active | Not Active | Not Active |  |  |  |  | 
2 | C[C@H]([C@](O)(Cn1cncn1)c1ccc(F)cc1F)S(C)(=O)=O [GENACONAZOLE] | Not Active |  | Not Active | Not Active | Not Active | Not Active | Not Active | Not Active | Not Active | Not Active |  |  |  | 
3 | Cc1c(F)c(N2CCNC(C)C2)cc2c1c(=O)c(C(=O)O)cn2C1CC1 (centres undefined) [GREPAFLOXACIN] | Not Active |  | Not Active | Not Active | Not Active | Not Active | Not Active | Not Active | Not Active | Not Active |  |  |  | 
4 | N=C(N)N/N=C/c1c(Cl)cccc1Cl [GUANABENZ] | Not Active |  | Not Active | Not Active |  | Not Active | Not Active | Not Active | Not Active |  | 0.097 µM | 0.062 µM | 2.07 µM | 1.18 µM
5 | C[C@]12CCC(=O)C=C1CC[C@@H]1[C@@H]2[C@@H](O)C[C@@]2(C)[C@H]1CC[C@]2(O)C(=O)CO [HYDROCORTISONE] | Not Active |  | Not Active | Not Active | Not Active | Not Active | Not Active | Not Active | Not Active | Not Active |  |  |  | 
6 | CC(C(=O)O)c1ccc(CC2CCCC2=O)cc1 (centres undefined) [LOXOPROFEN] | Not Active |  | Not Active | Not Active | Not Active | Not Active | Not Active | Not Active | Not Active | Not Active |  |  |  | 
7 | Cc1cccc(Nc2ccccc2C(=O)O)c1C [MEFENAMIC ACID] | Not Active |  | Not Active | Not Active | Not Active | Not Active | Not Active | Not Active | Not Active | Not Active |  |  |  | 
8 | CC(=O)O[C@]1(C(C)=O)CC[C@H]2[C@@H]3C=C(C)C4=CC(=O)CC[C@]4(C)[C@H]3CC[C@@]21C [MEGESTROL ACETATE] | Not Active |  | Not Active | Not Active | Not Active | Not Active | Not Active | Not Active | Not Active | Not Active |  |  |  | 
9 | COc1ccccc1OCC(O)COC(N)=O (centres undefined) [METHOCARBAMOL] | Not Active |  | Not Active | Not Active | Not Active | Not Active | Not Active | Not Active | Not Active | Not Active |  |  |  | 
10 | CN(Cc1cnc2nc(N)nc(N)c2n1)c1ccc(C(=O)N[C@@H](CCC(=O)O)C(=O)O)cc1 [METHOTREXATE] | Not Active |  | Not Active | Not Active | Not Active | Not Active | Not Active | Not Active | Not Active | Not Active |  |  |  | 
11 | COC(=O)c1ccccc1O [METHYL SALICYLATE] | Not Active |  | Not Active | Not Active | Not Active | Not Active | Not Active | Not Active | Not Active | Not Active |  |  |  | 
12 | O=C(O)c1cccnc1 [NIACIN] | Not Active |  | Not Active | Not Active | Not Active | Not Active | Not Active | Not Active | Not Active | Not Active |  |  |  | 
13 | CNC(=C[N+](=O)[O-])NCCSCc1csc(CN(C)C)n1 [NIZATIDINE] | Not Active |  | Not Active | Not Active | Not Active | Not Active | Not Active | Not Active | Not Active | Not Active |  |  |  | 
14 | C[C@]12C/C(=C/O)C(=O)C[C@@H]1CC[C@@H]1[C@@H]2CC[C@@]2(C)[C@H]1CC[C@]2(C)O [OXYMETHOLONE] | Not Active |  | Not Active | Not Active | Not Active | Not Active | Not Active | Not Active | Not Active | Not Active |  |  |  | 
15 | CC(C)(CO)C(O)C(=O)NCCCO (centres undefined) [PANTHENOL] | Not Active |  | Not Active | Not Active | Not Active | Not Active | Not Active | Not Active | Not Active | Not Active |  |  |  | 
16 | COc1ccc(Cc2nccc3cc(OC)c(OC)cc23)cc1OC [PAPAVERINE] | Not Active |  | Not Active | Not Active | Not Active | Not Active | Not Active | Not Active | Not Active | Not Active |  |  |  | 
17 | CCCCC1C(=O)N(c2ccccc2)N(c2ccccc2)C1=O [PHENYLBUTAZONE] | Not Active |  | Not Active | Not Active | Not Active | Not Active | Not Active | Not Active | Not Active | Not Active |  |  |  | 
18 | Cc1cccc(Nc2cc(Cl)nc(SCC(=O)O)n2)c1C [PIRINIXIC ACID] | Not Active |  | Not Active | Not Active | Not Active | Not Active | Not Active | Not Active | Not Active | Not Active |  |  |  | 
